Here are results for three compounds from patent US6359010B1, “Methods of treating anxiety and mood disorders with oleamide” (priority 1999, dated 2002).

Read-outs that look alike come from different tables or passages of the source.

One test has as its system rat 5-HT2 receptor. To be noted: oocytes expressing the rat 5-HT2 receptor, cited from earlier work.
The subject of test [1] is CRH mRNA in cloned hypothalamic IVB cells. Description: CRH mRNA detection by Northern hybridization in clone IVB cells. Type of test: cell-based, rat. To be noted: 0 mM to 10 mM oleamide, 20 hours incubation, densitometry normalized to 28S, vs vehicle. The method, then:
(§1) Embryonic day 19 Sprague Dawley rats were humanely dissected from pregnant rats and decapitated as described by Kasckow et al. (1997). The hypothalamus was removed and sliced. Hypothalamic slices were placed in phosphate buffered saline (PBS: NaCl, 137 mM; Na2HPO4, 21 mM; KH2PO4, 29 mM; KCl, 1.2 mM; pH 7.3). Cells were dissociated for 10-15 minutes in 0.25% trypsin containing 75 units/ml of DNAse in serum-free media (SFM) consisting of a mixture of Dulbecco's modified essential medium and Ham's F-12 (1:1, v/v from Gibco) supplemented with 14 mM glucose, 15 mM NaHCO3, 5 mM Hepes and 0.05 U/ml of penicillin streptomycin (Sigma). […]
(§2) Virus producer cell line γCRE/pZIPTEX was propagated at 1×10^6 cells per 100 mm tissue culture dish in the same media used for dissociated hypothalamic cultures (SFM+7.5% fetal bovine serum). […] One cell was selected on the basis of CRH peptide production which was monitored by radioimmunoassay (described below). […]
Total RNA was isolated using the PUREscript RNA isolation kit (Gentra Systems, Minneapolis, Minn.). […] A Foto/Eclipse Imager (Fotodyne Inc., Hartland, Wis.) interfaced with Power Macintosh 8100/110 using NIH ImageQuant analysis software was utilized for densitometric quantitation of the mRNA bands.
(§3) The quantitative data obtained were expressed as mean±standard error. […]

Another test relates to 5HT2. To be noted: in vivo evidence; cited from earlier work.
Another test has as its system GABAA receptor. To be noted: cited from earlier work.
The test system of test [2] is CRH release from cloned hypothalamic IVB cells. Description: CRH release from clone IVB cells by radioimmunoassay. Format: cell-based, rat. The method, then:
as §1, §2
RIA for CRH was performed according to the protocol provided by IgG Corporation (Nashville, Tenn.) utilizing the reagents provided. […] Radioactivity of the pellet was measured using a Packard Multi-Prias 4 gamma counter (Packard Instruments, Downers, Ill.).
as §3

The test system of test [3] is rats. Description: Elevated plus maze. Format: in vivo, rat. As to the method: Methods for elevated plus maze testing were as follows: Based on Lister (1987), a 2 feet-4 arm radial maze consisting of 2 opposing enclosed arms (30 cm high×30 cm long×5 cm wide) and 2 opposing exposed arms (30 cm×5 cm) was constructed and was elevated on a pedestal 30 cm above the surface of a table and situated in the center of a dimly lit room. Testing was conducted in a quiet, dedicated room that was dimmed to provide 22 to 350 lux of illumination on the exposed arms of the maze and less than 1 lux within the enclosed arms. Animals were placed facing towards the enclosed arm in the center of the plus maze. […] (1992 , 1994). We assessed time in open arms and closed arms, total number of entries and rearings, based on Windle et al. (1997). All observers were blind to treatment to remove any investigator bias.

Test [4] concerns c-fos mRNA in brain areas. The conditions noted are these: IP, rodents, cited from earlier work.
For test [5], the system named is N-methyl-D-aspartate (NDMA) receptor. To be noted: cited from earlier work.
A further test has as its target T1, 5HT3 receptor (Homo sapiens, UniProt P46098).
T1 sequence (P46098 24-478): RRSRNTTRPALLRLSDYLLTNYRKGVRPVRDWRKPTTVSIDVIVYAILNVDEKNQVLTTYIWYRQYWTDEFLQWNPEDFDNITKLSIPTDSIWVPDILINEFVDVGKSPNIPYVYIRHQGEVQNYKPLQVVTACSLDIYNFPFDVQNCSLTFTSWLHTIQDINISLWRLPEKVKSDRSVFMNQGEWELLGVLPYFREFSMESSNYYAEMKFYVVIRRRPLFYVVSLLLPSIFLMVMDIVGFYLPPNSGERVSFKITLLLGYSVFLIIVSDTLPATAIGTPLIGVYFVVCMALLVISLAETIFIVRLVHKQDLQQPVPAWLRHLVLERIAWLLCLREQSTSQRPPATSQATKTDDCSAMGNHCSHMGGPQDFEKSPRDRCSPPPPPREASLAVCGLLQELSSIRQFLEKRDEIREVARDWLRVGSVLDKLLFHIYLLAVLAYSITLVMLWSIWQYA
To be noted: cited from earlier work.

In test [6] the test system is rats. To be noted: cited from earlier work.

For the compound `CCCCCCCCCCCCCCCCCC(N)=O` [octadecanamide, reference compound], the “effect on 5-HT-elicited currents” value in the test with rat 5-HT2 receptor was “opposite those of oleamide”.

Take `CCCCCCCC/C=C\CCCCCCCC(N)=O` [oleamide, cis-9,10-octadecenoamide]: the results for the “CRH mRNA (CRH synthesis)” value in test [1] and in test [1] (listed as Oleamide) were “concentration-dependent manner” and “increased CRH mRNA”, respectively. Besides, the “5HT2 function in vivo” value in the test on 5HT2 was “indirectly potentiates”. Further, the “effects on GABAA receptor” value with GABAA receptor was “no significant effects”. Besides, the “immunoreactive CRH (CRH-LI) release” value in test [2] (cloned IVB cells, 10 μM oleamide vs vehicle, n=9) is on record as “significant increase”. Besides, in test [2] (cloned hypothalamic IVB cells, concentration dependence), the “release of CRH” value is listed as “significant concentration-dependent increases”. Also, the exploratory behavior result in the test with rats [3] (2 mg dose, rats approx. 250 g, n=10 per group) is on record as “overall increase in exploratory behavior”. Also, in the test with rats [3] (2 mg dose, rats, relative to vehicle, P=0.0241), the “total number of entries to both open and closed arm” value is listed as “approximately doubled”. The “Rearings (mean)” value is recorded as 17.2 with rats [3] (5 min of testing, 2 mg dose, rats, control 8.2, P=0.002) and 24 with rats [3] (10 min of testing, 2 mg dose, rats, control 15, P=0.01). Besides, the overall activity entry in the test with rats [3] (IP dosing) was “decreasing overall activity”. For the same compound, the “activation of brain areas (transient induction of c-fos mRNA)” value was “not” in test [4] (1 mg/kg) and “activation of multiple brain areas” in [4] (5 or 10 mg/kg). In addition, the “effects on NMDA receptor” value in test [5] is reported as “no significant effects”. In the test with rat 5-HT2 receptor, the “effect on 5-HT-elicited currents” value is recorded as “markedly potentiates”. Besides, the “direct effects on 5-HT2 receptor” value with rat 5-HT2 receptor (without 5-HT) is reported as “no significant direct effects”. The “effects on 5HT3 receptor” value on 5HT3 receptor is “no significant effects”. Also, the sleep latency result in the test with rats [6] (doses between 5 and 150 mg) is recorded as “reduce sleep latency”. Also, in the test on rats [6] (intraperitoneal, doses between 5 and 50 mg), the “duration of induced sleep” value was 1 to 2.5 h.

As for `CCCCCCCC/C=C\CCCCCCCC(=O)O` [oleic acid, reference compound], in the test with rat 5-HT2 receptor, the “effect on 5-HT-elicited currents” value is “does not have any effect”.
